Laboratory results taken from patent US10308639B2, “Phosphatidylinositol 3-kinase inhibitors” (Gilead Sciences, Inc., priority 2014, dated 2019).
Where two headings read alike, the source gives them in different places.

Experiments:
Type in all cases: biochemical
PI3Kβ = target: T1, PI3Kβ (Homo sapiens, UniProt P42338); assay: TR-FRET enzymatic activity assay, PI3Kβ
T1 construct: made in house

PI3Kδ = target: T2, PI3Kδ (Homo sapiens, UniProt O00329); assay: TR-FRET enzymatic activity assay, PI3Kδ
T2 construct: made in house
T2 sequence (O00329 whole entry): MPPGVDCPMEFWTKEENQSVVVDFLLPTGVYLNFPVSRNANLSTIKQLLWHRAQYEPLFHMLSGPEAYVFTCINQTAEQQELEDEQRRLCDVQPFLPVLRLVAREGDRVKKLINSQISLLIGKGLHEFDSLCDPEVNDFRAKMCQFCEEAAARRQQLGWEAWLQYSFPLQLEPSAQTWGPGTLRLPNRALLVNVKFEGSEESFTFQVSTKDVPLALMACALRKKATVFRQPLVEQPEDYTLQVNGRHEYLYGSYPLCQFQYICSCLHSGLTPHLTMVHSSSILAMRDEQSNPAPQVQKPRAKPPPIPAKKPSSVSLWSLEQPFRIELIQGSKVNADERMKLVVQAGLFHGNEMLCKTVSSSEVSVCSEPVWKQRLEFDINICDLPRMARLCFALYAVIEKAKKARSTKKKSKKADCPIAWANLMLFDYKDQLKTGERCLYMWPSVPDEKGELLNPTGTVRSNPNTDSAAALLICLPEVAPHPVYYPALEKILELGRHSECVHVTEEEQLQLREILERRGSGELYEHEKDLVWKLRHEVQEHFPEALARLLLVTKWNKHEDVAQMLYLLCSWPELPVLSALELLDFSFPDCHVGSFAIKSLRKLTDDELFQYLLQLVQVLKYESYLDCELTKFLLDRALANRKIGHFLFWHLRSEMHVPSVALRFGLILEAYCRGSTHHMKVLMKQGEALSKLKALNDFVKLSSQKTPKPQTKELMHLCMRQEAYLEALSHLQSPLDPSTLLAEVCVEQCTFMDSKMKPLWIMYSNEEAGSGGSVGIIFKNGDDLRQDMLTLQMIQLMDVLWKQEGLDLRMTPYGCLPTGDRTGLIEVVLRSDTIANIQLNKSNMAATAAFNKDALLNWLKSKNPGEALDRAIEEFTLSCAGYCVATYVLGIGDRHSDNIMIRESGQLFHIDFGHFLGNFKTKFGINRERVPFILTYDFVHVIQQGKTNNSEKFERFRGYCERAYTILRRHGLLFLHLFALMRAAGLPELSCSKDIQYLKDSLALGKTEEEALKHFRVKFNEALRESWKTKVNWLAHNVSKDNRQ
T2 sequence (P27986 whole entry partner): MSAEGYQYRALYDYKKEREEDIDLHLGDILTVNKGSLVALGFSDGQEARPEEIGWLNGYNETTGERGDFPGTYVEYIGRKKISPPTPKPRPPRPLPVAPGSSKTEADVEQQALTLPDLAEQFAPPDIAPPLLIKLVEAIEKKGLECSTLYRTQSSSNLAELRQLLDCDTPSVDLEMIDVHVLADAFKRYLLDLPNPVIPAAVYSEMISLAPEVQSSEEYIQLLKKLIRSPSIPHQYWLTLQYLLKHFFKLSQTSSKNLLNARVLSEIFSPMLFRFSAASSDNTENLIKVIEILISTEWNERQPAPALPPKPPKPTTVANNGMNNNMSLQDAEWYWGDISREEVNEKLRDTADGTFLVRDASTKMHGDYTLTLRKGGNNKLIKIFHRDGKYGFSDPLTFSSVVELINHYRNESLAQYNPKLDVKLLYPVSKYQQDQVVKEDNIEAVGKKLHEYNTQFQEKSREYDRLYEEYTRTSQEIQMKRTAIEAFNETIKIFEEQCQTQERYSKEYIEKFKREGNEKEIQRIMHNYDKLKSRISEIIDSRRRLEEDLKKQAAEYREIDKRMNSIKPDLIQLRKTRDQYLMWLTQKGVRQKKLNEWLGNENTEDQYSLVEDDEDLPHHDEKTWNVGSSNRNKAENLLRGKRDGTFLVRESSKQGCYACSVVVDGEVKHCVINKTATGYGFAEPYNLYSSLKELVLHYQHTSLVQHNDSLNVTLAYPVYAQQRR

PI3Kγ = target: T3, PI3Kγ (Homo sapiens, UniProt P48736); assay: TR-FRET enzymatic activity assay, PI3Kγ; conditions: read-out: PI3Kγ IC50
T3 construct: made in house
T3 sequence (P48736 whole entry): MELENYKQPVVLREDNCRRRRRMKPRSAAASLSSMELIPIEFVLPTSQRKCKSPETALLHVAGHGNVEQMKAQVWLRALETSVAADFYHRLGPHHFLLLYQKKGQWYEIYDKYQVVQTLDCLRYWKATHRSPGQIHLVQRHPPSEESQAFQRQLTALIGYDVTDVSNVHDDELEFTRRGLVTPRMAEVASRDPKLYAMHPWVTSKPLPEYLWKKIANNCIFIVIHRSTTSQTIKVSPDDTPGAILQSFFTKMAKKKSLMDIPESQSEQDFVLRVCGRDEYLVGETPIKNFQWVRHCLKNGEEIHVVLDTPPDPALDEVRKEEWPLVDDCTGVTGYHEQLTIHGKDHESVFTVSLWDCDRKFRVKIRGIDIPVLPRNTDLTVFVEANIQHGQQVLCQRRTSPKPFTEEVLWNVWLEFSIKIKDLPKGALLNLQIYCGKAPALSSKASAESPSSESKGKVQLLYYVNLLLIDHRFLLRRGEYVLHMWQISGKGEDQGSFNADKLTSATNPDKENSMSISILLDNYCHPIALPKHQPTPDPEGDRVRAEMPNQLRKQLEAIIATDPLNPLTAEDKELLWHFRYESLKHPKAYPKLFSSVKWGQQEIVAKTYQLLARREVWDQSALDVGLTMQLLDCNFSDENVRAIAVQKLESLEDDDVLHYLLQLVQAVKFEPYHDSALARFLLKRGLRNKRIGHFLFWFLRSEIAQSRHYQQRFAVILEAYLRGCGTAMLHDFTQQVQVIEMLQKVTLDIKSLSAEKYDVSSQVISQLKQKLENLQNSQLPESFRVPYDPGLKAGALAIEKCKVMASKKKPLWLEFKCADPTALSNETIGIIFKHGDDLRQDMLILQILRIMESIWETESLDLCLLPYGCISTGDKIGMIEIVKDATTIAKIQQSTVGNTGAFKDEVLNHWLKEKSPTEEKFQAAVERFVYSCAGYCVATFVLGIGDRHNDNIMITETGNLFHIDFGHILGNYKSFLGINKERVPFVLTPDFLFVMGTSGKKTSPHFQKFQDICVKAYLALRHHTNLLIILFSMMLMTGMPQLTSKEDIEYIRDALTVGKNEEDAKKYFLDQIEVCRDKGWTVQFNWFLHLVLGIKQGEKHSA
Method in brief: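 Each PI3K isoform is tested in an enzymatic format. Signal comes from time-resolved fluorescence energy transfer.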

[1] = Table 2, TR-FRET, 2x Km ATP, 30 minutes at 25° C.

T1 sequence (P42338 whole entry): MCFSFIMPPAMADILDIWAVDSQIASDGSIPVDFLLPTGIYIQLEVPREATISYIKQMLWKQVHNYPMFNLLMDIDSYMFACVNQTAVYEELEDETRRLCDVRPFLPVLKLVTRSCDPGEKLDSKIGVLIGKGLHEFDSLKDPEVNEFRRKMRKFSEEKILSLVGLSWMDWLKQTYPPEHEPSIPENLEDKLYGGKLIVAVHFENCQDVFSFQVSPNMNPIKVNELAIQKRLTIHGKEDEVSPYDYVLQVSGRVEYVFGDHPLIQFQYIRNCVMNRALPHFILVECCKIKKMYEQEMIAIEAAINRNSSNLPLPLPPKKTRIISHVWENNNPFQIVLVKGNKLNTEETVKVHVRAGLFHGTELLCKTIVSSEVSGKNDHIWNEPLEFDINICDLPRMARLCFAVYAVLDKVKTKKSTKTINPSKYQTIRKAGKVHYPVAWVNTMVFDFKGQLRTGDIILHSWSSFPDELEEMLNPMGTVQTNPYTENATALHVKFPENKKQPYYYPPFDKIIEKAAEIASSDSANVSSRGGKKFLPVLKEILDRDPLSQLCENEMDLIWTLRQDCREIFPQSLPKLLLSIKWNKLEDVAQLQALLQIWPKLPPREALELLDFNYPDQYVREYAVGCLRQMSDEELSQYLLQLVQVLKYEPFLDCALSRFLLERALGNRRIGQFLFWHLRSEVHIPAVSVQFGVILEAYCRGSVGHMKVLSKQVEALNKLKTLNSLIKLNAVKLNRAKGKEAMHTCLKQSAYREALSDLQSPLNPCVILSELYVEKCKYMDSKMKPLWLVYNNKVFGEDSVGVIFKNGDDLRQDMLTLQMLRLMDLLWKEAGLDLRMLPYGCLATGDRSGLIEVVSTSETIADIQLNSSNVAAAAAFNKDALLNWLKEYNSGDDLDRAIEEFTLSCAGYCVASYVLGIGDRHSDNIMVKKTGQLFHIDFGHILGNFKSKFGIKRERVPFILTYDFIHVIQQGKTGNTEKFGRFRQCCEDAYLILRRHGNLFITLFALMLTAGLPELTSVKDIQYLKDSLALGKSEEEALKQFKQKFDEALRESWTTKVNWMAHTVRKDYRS
T1 sequence (P27986 whole entry partner): as the sequence (P27986 whole entry partner) above

Row | IC50 (PI3Kβ; [1]) | IC50 (PI3Kδ; [1]) | IC50 (PI3Kγ) | IC50 (PI3Kβ; Table 2a, same assay) | IC50 (PI3Kδ; Table 2a, same assay) | IC50 (PI3Kγ; Table 2a, same assay) | IC50 (PI3Kγ; [1]) | SMILES
1 | 0.1 µM | 0.008 µM |  |  |  |  | 1.5 µM | CC[C@H](Nc1ncnc2ccc(Cl)nc12)c1nc2c(C#N)cccc2c(=O)n1-c1cn[nH]c1 [Compound 94, (S)-2-(1-((6-chloropyrido[3,2-d]pyrimidin-4-yl)amino)propyl)-4-oxo-3-(1H-pyrazol-4-yl)-3,4-dihydroquinazoline-8-carbonitrile]
2 | 0.004 µM | 0.001 µM |  |  |  |  | 0.41 µM | Cc1nc(N)nc(N[C@@H](c2ccccc2)c2nc3cccc(Cl)c3c(=O)n2-c2cc[nH]n2)c1C#N [Compound 110, (S)-2-amino-4-(((5-chloro-4-oxo-3-(1H-pyrazol-3-yl)-3,4-dihydroquinazolin-2-yl)(phenyl)methyl)amino)-6-methylpyrimidine-5-carbonitrile]
3 |  |  |  | 0.007 µM | 0.003 µM | 3.9 µM |  | CC[C@H](Nc1nc(N)nc(N)c1C#N)c1nc2c(Cl)cc(F)cc2c(=O)n1-c1cc[nH]n1 [Compound 258, (S)-2,4-diamino-6-((1-(8-chloro-6-fluoro-4-oxo-3-(1H-pyrazol-3-yl)-3,4-dihydroquinazolin-2-yl)propyl)amino)pyrimidine-5-carbonitrile]
4 |  |  |  | 0.037 µM | 0.005 µM | > 10 µM |  | Cc1c[nH]nc1-n1c([C@@H](Nc2nc(N)nc(C)c2C#N)C2CC2)nc2c(C#N)cccc2c1=O [Compound 203, (S)-2-(((2-amino-5-cyano-6-methylpyrimidin-4-yl)amino)(cyclopropyl)methyl)-3-(4-methyl-1H-pyrazol-3-yl)-4-oxo-3,4-dihydroquinazoline-8-carbonitrile]
5 |  |  |  | 0.093 µM | 0.21 µM | > 10 µM |  | Nc1nc(N)c(Cl)c(N[C@@H](CO)c2nc3c(Cl)cc(F)cc3c(=O)n2-c2cc[nH]n2)n1 [Compound 149, (R)-8-chloro-2-(1-((2,6-diamino-5-chloropyrimidin-4-yl)amino)-2-hydroxyethyl)-6-fluoro-3-(1H-pyrazol-3-yl)quinazolin-4(3H)-one]
6 |  |  |  | 0.002 µM | 0.0006 µM | 0.24 µM |  | N#Cc1c(N)nc(N)nc1N[C@H](c1nc2cccc(C(F)F)c2c(=O)n1-c1cc[nH]n1)C1CC1 [Compound 214, (S)-2,4-diamino-6-((cyclopropyl(5-(difluoromethyl)-4-oxo-3-(1H-pyrazol-3-yl)-3,4-dihydroquinazolin-2-yl)methyl)amino)pyrimidine-5-carbonitrile]
7 |  |  |  | 2 µM | 0.13 µM | > 10 µM |  | N#Cc1c(C(F)F)nc(N)nc1N1CCC[C@H]1c1nc2cccc(Cl)c2c(=O)n1-c1cc[nH]n1 [Compound 189, (S)-2-amino-4-(2-(5-chloro-4-oxo-3-(1H-pyrazol-3-yl)-3,4-dihydroquinazolin-2-yl)pyrrolidin-1-yl)-6-(difluoromethyl)pyrimidine-5-carbonitrile]
8 |  |  |  | 0.006 µM | 0.001 µM | 0.42 µM |  | Cc1n[nH]cc1-n1c([C@H](C)Nc2nc(N)nc(N)c2C#N)nc2c(Cl)ccc(Cl)c2c1=O [Compound 219, (S)-2,4-diamino-6-((1-(5,8-dichloro-3-(3-methyl-1H-pyrazol-4-yl)-4-oxo-3,4-dihydroquinazolin-2-yl)ethyl)amino)pyrimidine-5-carbonitrile]
9 | 0.005 µM | 0.001 µM |  |  |  |  | 0.15 µM | Cc1nc(N)nc(N[C@@H](c2ccccc2)c2nc3cccc(Cl)c3c(=O)n2-c2cn[nH]c2)c1C#N [Compound 108, (S)-2-amino-4-(((5-chloro-4-oxo-3-(1H-pyrazol-4-yl)-3,4-dihydroquinazolin-2-yl)(phenyl)methyl)amino)-6-methylpyrimidine-5-carbonitrile]
10 |  |  |  | 2.3 µM | 0.026 µM | > 10 µM |  | C[C@H](Nc1nc(N)nc(N)c1Cl)c1nc2c(Cl)cc(F)cc2c(=O)n1-c1n[nH]cc1Br [Compound 270, (S)-3-(4-bromo-1H-pyrazol-3-yl)-8-chloro-2-(1-((2,6-diamino-5-chloropyrimidin-4-yl)amino)ethyl)-6-fluoroquinazolin-4(3H)-one]
11 | 0.013 µM | 0.001 µM |  |  |  |  | 0.24 µM | CC[C@H](Nc1nc(N)nc(N)c1C#N)c1nc2cccc(Cl)c2c(=O)n1-c1n[nH]cc1Br [Compound 83, (S)-2,4-diamino-6-((1-(3-(4-bromo-1H-pyrazol-3-yl)-5-chloro-4-oxo-3,4-dihydroquinazolin-2-yl)propyl)amino)pyrimidine-5-carbonitrile]
12 | 4.7 µM | 4.1 µM | > 10 µM |  |  |  |  | CC[C@H](Nc1nc(Cl)nc2[nH]ncc12)c1nc2c(Cl)ccc(Cl)c2c(=O)n1-c1cc[nH]n1 [Compound 82, (S)-5,8-dichloro-2-(1-((6-chloro-1H-pyrazolo[3,4-d]pyrimidin-4-yl)amino)propyl)-3-(1H-pyrazol-3-yl)quinazolin-4(3H)-one]
13 |  |  |  | 0.004 µM | 0.002 µM | 0.64 µM |  | N#Cc1c(N)nc(N)nc1N[C@H](c1nc2cccc(C(F)(F)F)c2c(=O)n1-c1cc[nH]n1)C1CC1 [Compound 207, (S)-2,4-diamino-6-((cyclopropyl(4-oxo-3-(1H-pyrazol-3-yl)-5-(trifluoromethyl)-3,4-dihydroquinazolin-2-yl)methyl)amino)pyrimidine-5-carbonitrile]
14 |  |  |  | 0.002 µM | 0.005 µM | 6.08 µM |  | C[C@H](Nc1nc(N)nc(N)c1C#N)c1nc2c(C(F)F)cc(F)cc2c(=O)n1-c1cc[nH]n1 [Compound 140]

More lines, now with the values behind:

Row | SMILES | IC50 (PI3Kβ; [1]) | IC50 (PI3Kδ; [1]) | IC50 (PI3Kγ) | IC50 (PI3Kβ; Table 2a, same assay) | IC50 (PI3Kδ; Table 2a, same assay) | IC50 (PI3Kγ; Table 2a, same assay) | IC50 (PI3Kγ; [1])
15 | Nc1nc(N)c(Cl)c(N[C@H](c2nc3cccc(F)c3c(=O)n2-c2cc[nH]n2)C2CC2)n1 [Compound 10, (S)-2-(cyclopropyl((2,6-diamino-5-chloropyrimidin-4-yl)amino)methyl)-5-fluoro-3-(1H-pyrazol-3-yl)quinazolin-4(3H)-one] | 0.071 µM | 0.028 µM | > 10 µM |  |  |  | 
16 | C[C@H](Nc1nc(N)nc(N)c1Cl)c1nc2ccccc2c(=O)n1-c1cc[nH]n1 [Compound 275, (S)-2-(1-((2,6-diamino-5-chloropyrimidin-4-yl)amino)ethyl)-3-(1H-pyrazol-3-yl)quinazolin-4(3H)-one] |  |  |  | 0.046 µM | 0.04 µM | > 10 µM | 
17 | C[C@H](Nc1ncnc(N)c1C#N)c1nc2cccc(Cl)c2c(=O)n1-c1cc(C2CC2)[nH]n1 [Compound 5, (S)-4-amino-6-((1-(5-chloro-3-(5-cyclopropyl-1H-pyrazol-3-yl)-4-oxo-3,4-dihydroquinazolin-2-yl)ethyl)amino)pyrimidine-5-carbonitrile] | 0.34 µM | 0.028 µM | > 10 µM |  |  |  | 
18 | Nc1nc(N)c(Cl)c(N[C@H](c2nc3c(Cl)cccc3c(=O)n2-c2cc[nH]n2)C2CC2)n1 [Compound 13, (S)-8-chloro-2-(cyclopropyl((2,6-diamino-5-chloropyrimidin-4-yl)amino)methyl)-3-(1H-pyrazol-3-yl)quinazolin-4(3H)-one] | 0.14 µM | 0.039 µM | > 10 µM |  |  |  | 
19 | C[C@H](Nc1nc(N)nc(N)c1Cl)c1nc2c(Cl)ccc(Cl)c2c(=O)n1-c1cc[nH]n1 [Compound 69, (S)-5,8-dichloro-2-(1-((2,6-diamino-5-chloropyrimidin-4-yl)amino)ethyl)-3-(1H-pyrazol-3-yl)quinazolin-4(3H)-one] | 0.013 µM | 0.006 µM | > 10 µM |  |  |  | 
20 | N#Cc1c(N)nc(N)nc1N[C@H](c1nc2c(Cl)cccc2c(=O)n1-c1cn[nH]c1)C1CC1 [Compound 29, (S)-2,4-diamino-6-(((8-chloro-4-oxo-3-(1H-pyrazol-4-yl)-3,4-dihydroquinazolin-2-yl)(cyclopropyl)methyl)amino)pyrimidine-5-carbonitrile] | 0.003 µM | 0.006 µM |  |  |  |  | 0.44 µM
21 | C[C@H](Nc1nc(N)nc(N)c1Cl)c1nc2c(Cl)cc(F)cc2c(=O)n1-c1c[nH]cn1 [Compound 284, (S)-8-chloro-2-(1-((2,6-diamino-5-chloropyrimidin-4-yl)amino)ethyl)-6-fluoro-3-(1H-imidazol-4-yl)quinazolin-4(3H)-one] |  |  |  | 0.34 µM | 0.02 µM | > 10 µM | 
22 | C[C@H](Nc1nc(N)nc(N)c1Cl)c1nc2ccc(F)c(Cl)c2c(=O)n1-c1cc[nH]n1 [Compound 259, (S)-5-chloro-2-(1-((2,6-diamino-5-chloropyrimidin-4-yl)amino)ethyl)-6-fluoro-3-(1H-pyrazol-3-yl)quinazolin-4(3H)-one] |  |  |  | 0.021 µM | 0.006 µM | 3.5 µM | 
23 | CC[C@H](Nc1ncnc2scnc12)c1nc2c(Cl)ccc(Cl)c2c(=O)n1-c1cn[nH]c1 [Compound 39, (S)-5,8-dichloro-3-(1H-pyrazol-4-yl)-2-(1-(thiazolo[5,4-d]pyrimidin-7-ylamino)propyl)quinazolin-4(3H)-one] | 0.17 µM | 0.022 µM |  |  |  |  | 4.7 µM
24 | CC[C@H](Nc1nc(N)nc2[nH]nc(Br)c12)c1nc2cccc(C#N)c2c(=O)n1-c1cn[nH]c1 [Compound 79, (S)-2-(1-((6-amino-3-bromo-1H-pyrazolo[3,4-d]pyrimidin-4-yl)amino)propyl)-4-oxo-3-(1H-pyrazol-4-yl)-3,4-dihydroquinazoline-5-carbonitrile] | 0.65 µM | 0.34 µM |  |  |  |  | 9 µM
25 | N#Cc1c(N)nc(N)nc1N1CCC[C@H]1c1nc2cccc(Cl)c2c(=O)n1-c1cn[nH]c1 [Compound 23, (S)-2,4-diamino-6-(2-(5-chloro-4-oxo-3-(1H-pyrazol-4-yl)-3,4-dihydroquinazolin-2-yl)pyrrolidin-1-yl)pyrimidine-5-carbonitrile] | 0.15 µM | 0.009 µM |  |  |  |  | 0.74 µM
26 | Nc1nc(N)c(Cl)c(N[C@H](c2nc3c(Cl)ccc(Cl)c3c(=O)n2-c2cc[nH]n2)C2CC2)n1 [Compound 71, (S)-5,8-dichloro-2-(cyclopropyl((2,6-diamino-5-chloropyrimidin-4-yl)amino)methyl)-3-(1H-pyrazol-3-yl)quinazolin-4(3H)-one] | 0.038 µM | 0.013 µM | > 10 µM |  |  |  | 
